Assay results published in patent US20130029991A1, “New Phenylsulfamoyl Benzamide Derivatives as Bradykinin Antagonists” (priority 2006, published 2013).
Counter-ions that a name gives are not always drawn.

Molecular target: T1, human recombinant bradykinin B1 receptor (Homo sapiens, UniProt P46663)
T1 construct: host or cells: CHO cells
T1 sequence (P46663 1-353): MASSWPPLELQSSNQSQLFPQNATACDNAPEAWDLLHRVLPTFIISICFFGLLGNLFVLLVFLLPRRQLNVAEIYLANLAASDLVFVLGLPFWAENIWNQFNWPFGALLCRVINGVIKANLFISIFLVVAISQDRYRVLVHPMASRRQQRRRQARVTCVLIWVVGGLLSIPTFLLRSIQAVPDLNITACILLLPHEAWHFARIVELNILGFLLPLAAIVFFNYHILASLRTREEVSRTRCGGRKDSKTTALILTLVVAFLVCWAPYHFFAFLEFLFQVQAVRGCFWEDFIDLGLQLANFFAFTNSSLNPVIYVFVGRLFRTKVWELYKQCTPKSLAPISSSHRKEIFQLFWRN
Test: Human recombinant bradykinin B1 receptor binding
Details: CHO cell membranes, [3H]-[Des-Arg10] Kallidin radioligand; read-out: B1 binding
Experimental: 1. Human Recombinant Bradykinin B1 Receptor Binding
Binding assays were carried out on human recombinant bradykinin) receptors (expressed in CHO cells) according to the Euroscreen Technical Data Sheet (Cat.No.:ES-091). 20 μg protein/tube was incubated with [3,4-prolyl-3,4-^3H(N)]-[Des-Arg^10] Kallidin as radioligand. Non specific binding was determined in the presence of 10 μM Lys-des-Arg^9-Bradykinin. The final incubation volume was 250 μl. Samples were incubated for 15 min. at 25° C. then were rapidly vacuum filtered through GF/B filters presoaked for at least 1 h in 0.5% PEI. Radioactivity was determined by liquid scintillation spectroscopy.

SMILES	Ki [nM]
CN(C)CC(C)(C)CNC(=O)CNC(=O)c1ccc(S(=O)(=O)Nc2ccccc2Oc2ccc(Cl)cc2Cl)cc1 [Example 35, 4-[2-(2,4-Dichloro-phenoxy)-phenylsulfamoyl]-N-[(3-dimethylamino-2,2-dimethyl-propylcarbamoyl)-methyl]-benzamide]	< 20
O=C(CNC(=O)c1ccc(S(=O)(=O)Nc2ccccc2Oc2ccc(Cl)cc2Cl)cc1)NCCCCC1CCNCC1 [Example 59, 4-[2-(2,4-Dichloro-phenoxy)-phenylsulfamoyl]-N-[(4-piperidin-4-yl-butylcarbamoyl)-methyl]-benzamide hydrochloride]	< 20
O=C(CNC(=O)c1ccc(S(=O)(=O)Nc2ccccc2Nc2ccccc2)cc1)NCC1CCNCC1 [Example 103, 4-(2-Phenylamino-phenylsulfamoyl)-N-{[(piperidin-4-ylmethyl)-carbamoyl]-methyl}-benzamide hydrochloride]	< 20
N#CCc1ccc(NC(=O)CNC(=O)c2ccc(S(=O)(=O)Nc3ccccc3Oc3ccccc3)cc2)cc1 [Example 73, N-[(4-Cyanomethyl-phenylcarbamoyl)-methyl]-4-(2-phenoxy-phenylsulfamoyl)-benzamide]	< 20
CN(CCc1ccncc1)C(=O)CNC(=O)c1ccc(S(=O)(=O)Nc2ccccc2Oc2ccc(Cl)cc2Cl)cc1 [Example 43, 4-[2-(2,4-Dichloro-phenoxy)-phenylsulfamoyl]-N-{[methyl-(2-pyridin-4-yl-ethyl)-carbamoyl]-methyl}-benzamide]	< 20
